From patent US5728710A, “Rapamycin derivatives” (SmithKline Beecham Corporation, priority 1995, dated 1998) come the findings set out here.

One assay deals with Saccharomyces cerevisiae. Description: Assay for Antifungal Activity (agar well zone of inhibition). It counts as cell-based. Particulars: zones of inhibition after 48 hours, YPD agar. As for the experimental part: Yeast organism (Saccharomyces cerevisiae) in logarithmic growth were plated on complete agar medium (YPD). Compounds dissolved in an appropriate aqueous or organic solvent were placed in wells punched in the agar. Plates were incubated for 48 hours and zones of inhibition were measured.
Regarding “7-Demethoxy-7 (S)-(2' 4'-dimethoxyphenyl)-rapamycin [Example 15]”, the “Antifungal IC12” value is < 500 ng/mL.

On to `COc1ccc(C2CC3CCC(C)C(O)(O3)C(=O)C(=O)N3CCCCC3C(=O)OC(C(C)CC3CCC(O)C(OC)C3)CC(=O)C(C)C=C(C)C(O)C(OC)C(=O)C(C)CC(C)C=CC=CC=C2C)c(OC)c1` [Example 16, 7-Demethoxy-7 (R)-2',4'-dimethoxyphenyl)-rapamycin], for which the “Antifungal IC12” value was < 500 ng/mL.

Another assay has as its system Spleen cells from BDF1 female mice. Nature of the assay: Mitogenesis Assay for Immunosuppressive Activity (concanavalin A, 3H-thymidine). It counts as cell-based. Particulars: Concanavalin A 5 μg/ml, 72 hours at 37° C., 3H-thimidine uptake last 18 hours; read-out: Mitogenesis IC50. On the procedure: Spleen cells from BDF1 female mice were established in RPMI with 10% fetal calf serum at 5×10^6 /mL. One hundred […] of this suspension (5×10^5 cells) were dispensed into 96-well round-bottomed microtiter plates (Linbro, Flow Laboratories). Concanavalin A (5 μg/ml) was added as the mitogenic stimulus, and the final volume in the microtiter wells was adjusted to 200 μL with RPMI. Cell cultures were incubated for 72 hours at 37° C. in a 5% CO2 atmosphere and pulsed with 0.5 μCi ^3 H-thymidine (specific activity […]) for the last 18 hours of the 72 hour culture. The cells were harvested on an automated multiple sample harvester and cell-associated radioactivity counted in a Beckman liquid scintillation counter. The results are expressed as the mean values derived from quadruplicate measurements. Cell viability was determined by trypan blue exclusion after 72 hours of incubation. Compounds to be tested were added to the microtiter plates at the appropriate dilutions prior to the addition of cells.
As for “7-Demethoxy-7 (S)-(2' 4'-dimethoxyphenyl)-rapamycin [Example 15]”, the 50% inhibitory concentration (IC50) was < 500 nM.

With `COc1ccc(C2CC3CCC(C)C(O)(O3)C(=O)C(=O)N3CCCCC3C(=O)OC(C(C)CC3CCC(O)C(OC)C3)CC(=O)C(C)C=C(C)C(O)C(OC)C(=O)C(C)CC(C)C=CC=CC=C2C)c(OC)c1` [Example 16, 7-Demethoxy-7 (R)-2',4'-dimethoxyphenyl)-rapamycin], the IC50 was < 1000 nM.

The same assay, now with this note: Mus musculus, read-out: Mitogenesis IC50.
Take `CO[C@@H]1C[C@@H]2CC[C@@H](C)[C@@](O)(O2)C(=O)C(=O)N2CCCC[C@H]2C(=O)O[C@H]([C@H](C)C[C@@H]2CC[C@@H](O)[C@H](OC)C2)CC(=O)[C@H](C)/C=C(\C)[C@@H](O)[C@@H](OC)C(=O)[C@H](C)C[C@H](C)/C=C/C=C/C=C/1C` [Example 20, 7-Epirapamycin]: the concentration for half-maximal inhibition (IC50) was < 500 nM.

The assay is the same for the next values; noted with them: Mus musculus; Concanavalin A 5 μg/ml, 72 hours at 37° C., 3H-thimidine uptake last 18 hours; read-out: Mitogenesis IC50.
On to `CO[C@@H]1C[C@H](C[C@@H](C)[C@@H]2CC(=O)[C@H](C)/C=C(\C)[C@@H](O)[C@@H](OC)C(=O)[C@H](C)C[C@H](C)/C=C/C=C/C=C(\C)[C@@H](Sc3ccccc3)C[C@@H]3CC[C@@H](C)[C@@](O)(O3)C(=O)C(=O)N3CCCC[C@H]3C(=O)O2)CC[C@H]1O` [Example 11, 7-Demethoxy-7 (S)-phenylthiorapamycin], for which the half-maximal inhibitory concentration (IC50) is < 500 nM.

In the case of `CCO[C@@H]1C[C@@H]2CC[C@@H](C)[C@@](O)(O2)C(=O)C(=O)N2CCCC[C@H]2C(=O)O[C@H]([C@H](C)C[C@@H]2CC[C@@H](O)[C@H](OC)C2)CC(=O)[C@H](C)/C=C(\C)[C@@H](O)[C@@H](OC)C(=O)[C@H](C)C[C@H](C)/C=C/C=C/C=C/1C` [Example 2, 7-Demethoxy-7(R)-ethoxyrapamycin], the IC50 is < 500 nM.

In the case of `CO[C@@H]1C[C@H](C[C@@H](C)[C@@H]2CC(=O)[C@H](C)/C=C(\C)[C@@H](O)[C@@H](OC)C(=O)[C@H](C)C[C@H](C)/C=C/C=C/C=C(\C)[C@H](OC(C)=O)C[C@@H]3CC[C@@H](C)[C@@](O)(O3)C(=O)C(=O)N3CCCC[C@H]3C(=O)O2)CC[C@H]1O` [Example 6, 7-Demethoxy-7(R)-acetoxyrapamycin], the half-inhibitory concentration (IC50) was < 500 nM.

`CO[C@@H]1C[C@H](C[C@@H](C)[C@@H]2CC(=O)[C@H](C)/C=C(\C)[C@@H](O)[C@@H](OC)C(=O)[C@H](C)C[C@H](C)/C=C/C=C/C=C(\C)[C@@H](OCCO)C[C@@H]3CC[C@@H](C)[C@@](O)(O3)C(=O)C(=O)N3CCCC[C@H]3C(=O)O2)CC[C@H]1O` [Example 4, 7-Demethoxy-7(S)-(2-hydroxyethoxy)rapamycin]: the IC50 was < 500 nM.

As for `CO[C@@H]1C[C@H](C[C@@H](C)[C@@H]2CC(=O)[C@H](C)/C=C(\C)[C@@H](O)[C@@H](OC)C(=O)[C@H](C)C[C@H](C)/C=C/C=C/C=C(\C)[C@@H](c3ccco3)C[C@@H]3CC[C@@H](C)[C@@](O)(O3)C(=O)C(=O)N3CCCC[C@H]3C(=O)O2)CC[C@H]1O` [Example 7, 7-Demethoxy-7(S)-(2'-furanyl)rapamycin], the IC50 is < 500 nM.

Take `C=CC[C@H]1C[C@@H]2CC[C@@H](C)[C@@](O)(O2)C(=O)C(=O)N2CCCC[C@H]2C(=O)O[C@H]([C@H](C)C[C@@H]2CC[C@@H](O)[C@H](OC)C2)CC(=O)[C@H](C)/C=C(\C)[C@@H](O)[C@@H](OC)C(=O)[C@H](C)C[C@H](C)/C=C/C=C/C=C/1C` [Example 13, 7-Demethoxy-7(S)-allylrapamycin]: the IC50 is < 500 nM.

`CO[C@@H]1C[C@H](C[C@@H](C)[C@@H]2CC(=O)[C@H](C)/C=C(\C)[C@@H](O)[C@@H](OC)C(=O)[C@H](C)C[C@H](C)/C=C/C=C/C=C(\C)[C@H](OCCO)C[C@@H]3CC[C@@H](C)[C@@](O)(O3)C(=O)C(=O)N3CCCC[C@H]3C(=O)O2)CC[C@H]1O` [Example 5, 7-Demethoxy-7(R)-(2-hydroxyethoxy)rapamycin]: the half-inhibitory concentration (IC50) is < 500 nM.

Turning to `CCO[C@H]1C[C@@H]2CC[C@@H](C)[C@@](O)(O2)C(=O)C(=O)N2CCCC[C@H]2C(=O)O[C@H]([C@H](C)C[C@@H]2CC[C@@H](O)[C@H](OC)C2)CC(=O)[C@H](C)/C=C(\C)[C@@H](O)[C@@H](OC)C(=O)[C@H](C)C[C@H](C)/C=C/C=C/C=C/1C` [Example 1, 7-Demethoxy-7(S)-ethoxyrapamycin], the IC50 was < 500 nM.

Turning to `CO[C@@H]1C[C@H](C[C@@H](C)[C@@H]2CC(=O)[C@H](C)/C=C(\C)[C@@H](O)[C@@H](OC)C(=O)[C@H](C)C[C@H](C)/C=C/C=C/C=C(\C)[C@@H](O)C[C@@H]3CC[C@@H](C)[C@@](O)(O3)C(=O)C(=O)N3CCCC[C@H]3C(=O)O2)CC[C@H]1O` [Example 18, 7-O-Demethylrapamycin], the IC50 is < 500 nM.

In the case of `CO[C@@H]1C[C@H](C[C@@H](C)[C@@H]2CC(=O)[C@H](C)/C=C(\C)[C@@H](O)[C@@H](OC)C(=O)[C@H](C)C[C@H](C)/C=C/C=C/C=C(\C)[C@H](O)C[C@@H]3CC[C@@H](C)[C@@](O)(O3)C(=O)C(=O)N3CCCC[C@H]3C(=O)O2)CC[C@H]1O` [Example 19, 7-O-Demethyl-7-Epirapamycin], the IC50 is < 500 nM.

On to `COc1ccc(CO[C@H]2C[C@@H]3CC[C@@H](C)[C@@](O)(O3)C(=O)C(=O)N3CCCC[C@H]3C(=O)O[C@H]([C@H](C)C[C@@H]3CC[C@@H](O)[C@H](OC)C3)CC(=O)[C@H](C)/C=C(\C)[C@@H](O)[C@@H](OC)C(=O)[C@H](C)C[C@H](C)/C=C/C=C/C=C/2C)cc1OC` [Example 3, 7-Demethoxy-7(S)-(3,4-dimethoxybenzyloxy)rapamycin], for which the half-maximal inhibitory concentration (IC50) is < 500 nM.

In the case of `CO[C@@H]1C[C@H](C[C@@H](C)[C@@H]2CC(=O)[C@H](C)/C=C(\C)[C@@H](O)[C@@H](OC)C(=O)[C@H](C)C[C@H](C)/C=C/C=C/C=C(\C)[C@H](SC)C[C@@H]3CC[C@@H](C)[C@@](O)(O3)C(=O)C(=O)N3CCCC[C@H]3C(=O)O2)CC[C@H]1O` [Example 10, 7-Demethoxy-7(R)-methylthiorapamycin], the half-maximal inhibitory concentration (IC50) is < 500 nM.

With `CO[C@@H]1C[C@H](C[C@@H](C)[C@@H]2CC(=O)[C@H](C)/C=C(\C)[C@@H](O)[C@@H](OC)C(=O)[C@H](C)C[C@H](C)/C=C/C=C/C=C(\C)C(=O)C[C@@H]3CC[C@@H](C)[C@@](O)(O3)C(=O)C(=O)N3CCCC[C@H]3C(=O)O2)CC[C@H]1O` [Example 17, 7-Demethoxy-7-Oxorapamycin], the IC50 is < 500 nM.

In the case of `CO[C@@H]1C[C@H](C[C@@H](C)[C@@H]2CC(=O)[C@H](C)/C=C(\C)[C@@H](O)[C@@H](OC)C(=O)[C@H](C)C[C@H](C)/C=C/C=C/C=C(\C)[C@@H](SC)C[C@@H]3CC[C@@H](C)[C@@](O)(O3)C(=O)C(=O)N3CCCC[C@H]3C(=O)O2)CC[C@H]1O` [Example 9, 7-Demethoxy-7(S)-methylthiorapamycin], the IC50 was < 500 nM.

Consider `CO[C@@H]1C[C@H](C[C@@H](C)[C@@H]2CC(=O)[C@H](C)/C=C(\C)[C@@H](O)[C@@H](OC)C(=O)[C@H](C)C[C@H](C)/C=C/C=C/C=C(\C)[C@H](c3ccco3)C[C@@H]3CC[C@@H](C)[C@@](O)(O3)C(=O)C(=O)N3CCCC[C@H]3C(=O)O2)CC[C@H]1O` [Example 14, 7-Demethoxy-7(R)-(2'-furanyl)rapamycin], for which the IC50 is < 500 nM.

For `CO[C@@H]1C[C@H](C[C@@H](C)[C@@H]2CC(=O)[C@H](C)/C=C(\C)[C@@H](O)[C@@H](OC)C(=O)[C@H](C)C[C@H](C)/C=C/C=C/C=C(\C)CC[C@@H]3CC[C@@H](C)[C@@](O)(O3)C(=O)C(=O)N3CCCC[C@H]3C(=O)O2)CC[C@H]1O` [Example 8, 7-Demethoxyrapamycin], the concentration for half-maximal inhibition (IC50) was < 500 nM.
